Experimental data reported in ChEMBL document CHEMBL1136187, “Quaternary ammonium 3-(aminoethoxy)pyridines as antinociceptive agents” (Bioorg Med Chem Lett, 2003).

Columns and labels:
Mus musculus [1] = assay: Antinociceptive response as maximal possible effect upon subcutaneous administration in mice at the dose of 15 mg/kg; format: functional
Mus musculus [2] = assay: Antinociceptive response as maximal possible effect upon intrathecal administration in mouse at the dose of 20 mg/kg; format: functional
[3] = target: Neuronal acetylcholine receptor; assay: Binding affinity towards nicotinic acetylcholine receptor (nACh) using [3H](-)-nicotine as radioligand in rat brain; format: tissue-based
Mus musculus [4] = assay: Antinociceptive response as maximal possible effect upon subcutaneous administration in mice at the dose of 10 mg/kg; format: functional
Mus musculus [5] = assay: Antinociceptive response as maximal possible effect upon intrathecal administration in mouse at the dose of 25 mg/kg; format: functional
Mus musculus [6] = assay: Antinociceptive response as maximal possible effect upon intrathecal administration in mouse at the dose of 15 mg/kg; format: functional
Mus musculus [7] = assay: Antinociceptive effect upon subcutaneous administration in mice using tail-flick assay; 12-18; format: functional; conditions: sc
Mus musculus [8] = assay: Antinociceptive effect upon intrathecal administration in mouse using tail-flick assay; 10-19; format: functional
Mus musculus [9] = assay: Antinociceptive response as maximal possible effect upon subcutaneous administration in mice at the dose of 20 mg/kg; format: functional
Mus musculus [10] = assay: Antinociceptive effect upon intrathecal administration in mouse using tail-flick assay; 16-23; format: functional
Mus musculus [11] = assay: Antinociceptive effect upon subcutaneous administration in mice using tail-flick assay; 0.9-2.2; format: functional; conditions: sc
Mus musculus [12] = organism: Mus musculus; assay: animal or person; conditions: Tail, sc

CCC[N+](C)(C)CCOc1cccnc1.[Cl-]
MPE (Mus musculus [1]): 1% | MPE (Mus musculus [2]): 3% | Ki [3]: 29.2 nM

COc1ccc(OCC[N+](C)(C)C)cn1
Ki [3]: 37 nM

CC[N+](C)(C)CCOc1ccc(Br)nc1.[I-]
MPE (Mus musculus [4]): 0% | Ki [3]: 5 nM | MPE (Mus musculus [5]): 0%

CC(C)[N+](C)(C)CCOc1cccnc1.[Cl-]
MPE (Mus musculus [1]): 3% | MPE (Mus musculus [2]): 2% | Ki [3]: 13.8 nM

C[N+](C)(C)CCOc1ccc(Cl)nc1.[I-]
MPE (Mus musculus [6]): 4% | MPE (Mus musculus [4]): 5% | Ki [3]: 1.3 nM

CN(C)CCOc1cccnc1.O=C(O)C(=O)O
ED50 (Mus musculus [7]): 15 mg/kg

CC[N+](C)(C)CCOc1cccnc1.[Cl-]
ED50 (Mus musculus [8]): 14 ug mouse-1 | Ki [3]: 2.2 nM | MPE (Mus musculus [9]): 5%

C[N+](C)(C)CCOc1cccnc1.[Cl-]
ED50 (Mus musculus [10]): 19 ug mouse-1 | Ki [3]: 0.5 nM | ED50 (Mus musculus [11]): 1.4 mg/kg

CN1CCC[C@H]1c1cccnc1 [NICOTINE]
ED50 (Mus musculus [12]): 1.5 mg/kg
